Values joined by “and” are separate entries in the source; they are usually repeats but may differ in a detail not shown here. Equal entries are not always repeated. ± gives the expanded uncertainty stated by the source.
Columns and labels:
[1] = Crystal; for vapor or sublimation pressure: Transpiration method; for Normal melting temperature: DTA
[2] = Molar enthalpy of transition or fusion; settings: Crystal; DSC

O=C(O)c1ccc(I)cc1 [4-iodobenzoic acid]
[1]
Settings | vapor or sublimation pressure [kPa]
388.9 K | 0.00205 ± 0.00014
391.1 K | 0.00244 ± 0.00017
403.3 K | 0.00654 ± 0.00045
409.4 K | 0.01081 ± 0.00073
415.3 K | 0.01743 ± 0.0011
421.5 K | 0.02673 ± 0.0017
424.5 K | 0.03413 ± 0.0022
427.4 K | 0.04118 ± 0.0026
433.5 K | 0.06312 ± 0.004

Settings | Molar enthalpy of transition or fusion [kJ/mol] | Normal melting temperature [°C]
[1] | – | 270.8 ± 0.4
[2] | 33.7 ± 0.9 | –

O=C(O)c1ccccc1F [2-fluorobenzoic acid]
[1]
Settings | vapor or sublimation pressure [kPa]
333.9 K | 0.00321 ± 0.00023
334.6 K | 0.0035 ± 0.00023
335.9 K | 0.00389 ± 0.00026
337 K | 0.00451 ± 0.0003
338.9 K | 0.00528 ± 0.00035
340.2 K | 0.00614 ± 0.00044
342 K | 0.00738 ± 0.00051
342.2 K | 0.00734 ± 0.00051
345 K | 0.0094 ± 0.00064
346.6 K | 0.01115 ± 0.00075
348.3 K | 0.0132 ± 0.00088
351.2 K | 0.01709 ± 0.0011
352.4 K | 0.01997 ± 0.0013
353.2 K | 0.02087 ± 0.0014
354.2 K | 0.02242 ± 0.0015
356.5 K | 0.02903 ± 0.0019
358.2 K | 0.03398 ± 0.0022
358.3 K | 0.0322 ± 0.0021
360.5 K | 0.03997 ± 0.0026
361.3 K | 0.04428 ± 0.0028
363.4 K | 0.05001 ± 0.0032
364.5 K | 0.05529 ± 0.0036
367.2 K | 0.07204 ± 0.0046

Settings | Molar enthalpy of transition or fusion [kJ/mol] | Normal melting temperature [°C]
[1] | – | 123.6 ± 0.4
[2] | 20.3 ± 0.6 | –

O=C(O)c1ccccc1I [2-iodobenzoic acid]
[1]
Settings | vapor or sublimation pressure
362.4 K | 0.00113 ± 8e-05 kPa
367.6 K | 0.00188 ± 0.00013 kPa
376.2 K | 0.00432 ± 0.00028 kPa
381.9 K | 0.00744 ± 0.00051 kPa
386.9 K | 0.01099 ± 0.00075 kPa
393.2 K | 0.02004 ± 0.0013 kPa and 0.01875 ± 0.0012 kPa
397.2 K | 0.02759 ± 0.0018 kPa
399.2 K | 0.03193 ± 0.0021 kPa
403.2 K | 0.0431 ± 0.0028 kPa and 0.04492 ± 0.0029 kPa
407.3 K | 0.06078 ± 0.0039 kPa
411.5 K | 0.08737 ± 0.0055 kPa

Settings | Molar enthalpy of transition or fusion [kJ/mol] | Normal melting temperature [°C]
[1] | – | 161.4 ± 0.4
[2] | 27.6 ± 0.6 | –

O=C(O)c1cccc(F)c1 [3-fluorobenzoic acid]
[1]
Settings | vapor or sublimation pressure [kPa]
331.9 K | 0.00407 ± 0.00028
334.9 K | 0.00564 ± 0.00038
338 K | 0.00734 ± 0.00052
342.1 K | 0.01139 ± 0.00077
345 K | 0.01472 ± 0.00097
347.1 K | 0.01783 ± 0.0012
350.4 K | 0.02353 ± 0.0015
353.3 K | 0.03091 ± 0.002
356.5 K | 0.04119 ± 0.0027
359.5 K | 0.0543 ± 0.0035
362.6 K | 0.06845 ± 0.0043

Settings | Molar enthalpy of transition or fusion [kJ/mol] | Normal melting temperature [°C]
[1] | – | 122.8 ± 0.4
[2] | 18.5 ± 0.4 | –

O=C(O)c1ccc(F)cc1 [4-fluorobenzoic acid]
[1]
Settings | vapor or sublimation pressure [kPa]
343 K | 0.00456 ± 0.00031
346.2 K | 0.00612 ± 0.00044
349.3 K | 0.00844 ± 0.00059
355.1 K | 0.01384 ± 0.00091
356.5 K | 0.01539 ± 0.001
359.5 K | 0.02097 ± 0.0014
363.7 K | 0.02861 ± 0.0018
365.6 K | 0.03441 ± 0.0022
366.9 K | 0.03729 ± 0.0024
371.8 K | 0.05523 ± 0.0035
375.8 K | 0.07688 ± 0.0049
380.9 K | 0.1162 ± 0.0074
385.2 K | 0.1594 ± 0.01
386.2 K | 0.1701 ± 0.011

Settings | Molar enthalpy of transition or fusion [kJ/mol] | Normal melting temperature [°C]
[1] | – | 183.0 ± 0.4
[2] | 21.6 ± 0.5 | –

O=C(O)c1cccc(I)c1 [3-iodobenzoic acid]
[1]
Settings | vapor or sublimation pressure [kPa]
366.6 K | 0.00121 ± 9e-05
370.4 K | 0.00171 ± 0.00012
375.8 K | 0.00281 ± 0.0002
380.8 K | 0.00438 ± 0.00028
386 K | 0.00688 ± 0.00048
389.1 K | 0.00894 ± 0.00061
391.9 K | 0.01174 ± 0.00079
395.1 K | 0.01521 ± 0.001
399.2 K | 0.02068 ± 0.0014
404.1 K | 0.03146 ± 0.002
404.2 K | 0.03145 ± 0.002
409 K | 0.04684 ± 0.003
411.4 K | 0.05339 ± 0.0034
414.2 K | 0.06461 ± 0.0041
417.5 K | 0.08451 ± 0.0054
422 K | 0.1194 ± 0.0075

Settings | Molar enthalpy of transition or fusion [kJ/mol] | Normal melting temperature [°C]
[1] | – | 185.8 ± 0.4
[2] | 27.7 ± 0.6 | –

From the NIST ThermoML archive (doi:10.1016/j.fluid.2015.10.001)
